Measured values from PubChem BioAssay AID651630 (Sanford-Burnham Center for Chemical Genomics, 2012).
The source made the active and inactive calls.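 The calls were made as follows: active = lipid-stain IC50 at or below a set limit, with nuclear-stain toxicity IC50 at least five times higher; inactive = the rest.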

What was measured:
DAPI = experiment: TAG lipid buildup inhibition with viability readout – cell-based, panel, Nile Red and DAPI fluorescence, H9c2, dose response (AID 651630); details: H9c2 cells, DAPI nuclear fluorescence (cytotoxicity counter-readout), oleic acid;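 also: cells exposed to compound overnight before fixation and staining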
TAG = experiment: as above; details: H9c2 cells, Nile Red TAG fluorescence, oleic acid

| SMILES | IC50 cytotoxicity (DAPI nuclear signal decrease) (DAPI; mean of runs) | IC50 cytotoxicity (DAPI nuclear signal decrease) (DAPI; run 1) [µM] | IC50 cytotoxicity (DAPI nuclear signal decrease) (DAPI; run 2) [µM] | IC50 (TAG; mean of runs) | IC50 (TAG; run 1) [µM] | IC50 (TAG; run 2) [µM] |
| --- | --- | --- | --- | --- | --- | --- |
| CCOC(=O)[C@H]1[C@H]2COc3ccc(Cl)cc3[C@@H]2N2C(=O)c3cc(Cl)ccc3NC(=O)[C@@]12C | > 25 µM (inactive) | > 25 | > 25 | 9.03 µM | 11.6 | 6.41 |
| CN1CCN(c2ccc([N+](=O)[O-])cc2C(=O)c2ccc(Cl)cc2)CC1 | > 25 µM (inactive) | > 25 | > 25 | > 25 µM (inactive) | > 25 | > 25 |
| CCOCCOC(=O)c1[nH]c2c(c1C)C(=O)CC(c1cccs1)C2 (stereo not given) | > 25 µM (inactive) | > 25 | > 25 | > 25 µM (inactive) | > 25 | > 25 |
| CCOc1ccc(Cc2nnc(SCC(=O)Nc3ccccc3)n(N)c2=O)cc1 | > 25 µM (inactive) | > 25 | > 25 | 5.04 µM | 5.36 | 4.71 |
| S=C(N/N=C/c1cccs1)NC1CC2CCC1C2 (stereo not given) | > 25 µM (inactive) | > 25 | > 25 | 8.53 µM | 4.71 | 12.3 |
| OCCCn1c(C2CCCN2c2nc(-c3ccc(F)cc3)cs2)nc2cc(C(F)(F)F)ccc21 (stereo not given) | > 25 µM (inactive) | > 25 | > 25 | 14 µM | 14.1 | 13.9 |
| Brc1ccc(-c2csc(NNC3=NCCCCC3)n2)cc1 | – | 21.6 | > 25 | 1.85 µM | 1.55 | 2.15 |
| CC(C)=CCNc1ncnc2c1c(C#N)cn2C1OC(CO)C(O)C1O (stereo not given) | > 25 µM (inactive) | > 25 | > 25 | > 25 µM (inactive) | > 25 | > 25 |
| CCOC(=O)c1cc(CC)sc1NC(=O)c1cc([N+](=O)[O-])ccc1N1CCOCC1 | > 25 µM (inactive) | > 25 | > 25 | > 25 µM (inactive) | > 25 | > 25 |
| CN(C)C(=S)N=c1ssc(=S)n1Cc1ccco1 | > 25 µM (inactive) | > 25 | > 25 | > 25 µM (inactive) | > 25 | > 25 |
| CC(C)CN(C#N)c1nc(N2CCOCC2)nc(N2CCOCC2)n1 | > 25 µM (inactive) | > 25 | > 25 | 20.5 µM (inactive) | 19.4 | 21.5 |
| CCOc1ccc(C(=O)NC(=S)Nc2cccc(S(=O)(=O)NC3=NCCC3)c2)cc1 | > 25 µM (inactive) | > 25 | > 25 | > 25 µM (inactive) | > 25 | > 25 |
| CCCCOc1ccccc1C1CC(=O)NC2=C1C(=O)CCC2 (stereo not given) | > 25 µM (inactive) | > 25 | > 25 | 15.9 µM (inactive) | 9.56 | 22.3 |
| CC(C)(C)OC(=O)N(CCc1ccccc1)Cc1ccccc1OCc1cccc(NC(=O)/C=C/c2ccccc2)c1 | > 25 µM (inactive) | > 25 | > 25 | 15 µM | 21 | 8.93 |
| CC(C)c1ccc(NC(=O)Nc2nc(C(N)C3CCCCC3)cs2)cc1 (stereo not given) | 17.3 µM (inactive) | 16 | 18.6 | 8.38 µM | 8.24 | 8.53 |
| C[C@H](O)[C@@H]1CN2CCc3c([nH]c4ccc(-c5ccc6c(c5)OCO6)cc34)[C@@H]2C[C@@H]1N(C)C(=O)Nc1ccc(F)cc1 | > 25 µM (inactive) | > 25 | > 25 | 11 µM | 7.28 | 14.7 |
